Reference: ChEMBL document CHEMBL4368934, “Chemistry and biology of ophiobolin A and its congeners” (Bioorg Med Chem Lett, 2019)
In brackets after ≈: the same amount, converted by molar mass.

Legend:
[1] = Cytotoxicity against mouse P388/R cells after 72 hrs by MTT assay; format: functional, cell-based; conditions: P388, 72 h
Plasmodium falciparum = test: Antimalarial activity against Plasmodium falciparum K1 by [3H]-hypoxanthine incorporation assay; format: functional, organism-based
[2] = test system: Mycobacterium tuberculosis; test: Antibacterial activity against Mycobacterium tuberculosis H37Ra by microplate alamar blue assay; format: functional, organism-based
[3] = test system: Panel NCI-60 (60 carcinoma cell lines); test: Cytotoxicity against human NCI60 cells; format: functional
[4] = Acute toxicity in sc dosed mouse; format: organism-based; conditions: in vivo
[5] = Acute toxicity in iv dosed mouse; format: organism-based; conditions: in vivo

CC(C)=C/C=C/[C@H](C)C1=CC[C@]2(C)C[C@H]3[C@H](C(=O)C[C@@]3(C)O)/C(C=O)=C\C[C@@H]12
IC50 [1]: 270 to 650 nM

C/C(=C\[C@H](O)[C@@H](O)[C@H](C)[C@H]1CC[C@@]2(C)C[C@@H]3[C@H](C)CC(=O)[C@@H]3/C(C=O)=C\C[C@H]12)C(=O)O
IC50 (Plasmodium falciparum): 13 µg/mL (≈ 30.1 µM) | IC50 [2]: 200 µg/mL (≈ 462 µM)

CC(C)=C[C@H]1C[C@H](C)[C@]2(CC[C@]3(C)C[C@H]4[C@H](C(=O)C[C@@]4(C)O)/C(C=O)=C\C[C@H]32)O1 [OPHIOBOLIN A]
GI50 [3]: 72 nM | CC50 ([3]; read-out: LC50 (the source's name)): 629 nM | LD50 [4]: 238 mg/kg | LD50 [5]: 12 mg/kg
